From paper PMC9351465, “Mechanism-based heparanase inhibitors reduce cancer metastasis in vivo” (Proceedings of the National Academy of Sciences of the …, 2022) come the findings set out here.

One test deals with T1, HPSE (Homo sapiens, UniProt Q9Y251).
T1 sequence (Q9Y251 158-543 limits assumed): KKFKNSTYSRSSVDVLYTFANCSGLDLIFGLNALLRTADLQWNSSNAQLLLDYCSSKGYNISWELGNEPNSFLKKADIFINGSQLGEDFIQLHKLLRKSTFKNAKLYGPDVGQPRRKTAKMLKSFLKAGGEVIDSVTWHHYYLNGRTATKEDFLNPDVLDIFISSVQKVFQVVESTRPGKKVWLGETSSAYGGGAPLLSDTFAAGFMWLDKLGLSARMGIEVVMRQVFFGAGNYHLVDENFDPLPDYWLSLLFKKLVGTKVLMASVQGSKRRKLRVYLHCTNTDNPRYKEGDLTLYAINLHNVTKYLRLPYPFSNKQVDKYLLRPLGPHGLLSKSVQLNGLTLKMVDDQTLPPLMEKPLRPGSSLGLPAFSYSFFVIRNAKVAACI
T1 sequence (Q9Y251 36-109 limits assumed): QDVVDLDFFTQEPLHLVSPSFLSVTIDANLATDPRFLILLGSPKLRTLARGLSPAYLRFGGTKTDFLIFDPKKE
As to the kind of experiment: competitive activity-based protein profiling (cABPP) with ABP 7, recombinant HPSE. The following applies: recombinant HPSE 20 nM, 1 h preincubation at 37°C, then 100 nM ABP 7, pH 5.5.

The subject of another test is B16 melanoma cells. Nature of the test: B16 murine melanoma experimental lung metastasis model. In kind it is in vivo, mouse. The following applies: C57BL/J6 mice, i.p. 300 nmol 2 or 150 μg SST0001, then i.v. B16 cells with 2 nmol 2 or 10 μg SST0001; after 14 d; vs PBS. As for the experimental part: We initially tested a B16 murine melanoma metastasis model, measuring the formation of metastatic lung tumors by B16 melanoma cells after intravenous (i.v.) injection. The efficacy of covalent HPSE inhibition by 2 was compared to SST0001 (Roneparstat), a current best-in-class HPSE inhibitor and clinical trial candidate (SI Appendix, Fig. S1). Mice were inoculated intraperitoneally (i.p.) with 300 nmol of 2 (∼15 μmol/kg for a 20 g mouse), or 150 μg SST0001, followed by an i.v. injection of B16 cells alongside 2 nmol 2 or 10 μg SST0001.
For HS-degradation assays, ECM coated dishes were incubated with 200 ng recombinant HPSE in 1 mL reaction mixture (10 mM buffer Phosphate-Citrate pH 6.0, 50 mM NaCl, 1 mM DTT, 1 mM CaCl2) containing HPSE inhibitors or DMSO control. […] The Sepharose 6B column was eluted with PBS, and 35S radioactivity of 0.2 mL fractions quantitated using a liquid scintillation analyzer (Packard BioScience) (11). […]
Cells in the upper chamber were separated by Matrigel from a lower chamber containing 600 µL DMEM, supplemented with 10% FBS. […] 10 randomly selected microscopic fields were recorded, and cell invasion calculated using ImageJ, by quantitating the percentage of the field stained by crystal violet. […]
Mice were sacrificed after 14 days and the lungs were dissected, photographed and evaluated for the number of metastatic foci/lung. […]

Regarding `CC(=O)N[C@H]1[C@@H](O[C@H]2[C@H](O)[C@@H](O)[C@@H]3O[C@@H]3[C@@H]2C(=O)O)O[C@H](CO)[C@@H](O)[C@@H]1O` [compound 2], the “HPSE inhibition (cABPP)” value on HPSE is given as “nanomolar HPSE inhibition potencies”. For the same compound, the “lung metastases (metastatic foci/lung)” value in the test on B16 melanoma cells was “marked reduction in lung growths”.
